Measured values: patent US20180325914A1, “INCREASING STORAGE OF VITAMIN A, VITAMIN D AND/OR LIPIDS” (Salk Institute for Biological Studies, priority 2014, published 2018)

Test system: primary HSCs
Details: mRNA-Seq expression

With `Cc1sc2c(c1C)C(c1ccc(Cl)cc1)=N[C@@H](CC(=O)OC(C)(C)C)c1nnc(C)n1-2` [JQ1, (S)-tert-butyl 2-(4-(4-chlorophenyl)-2,3,9-trimethyl-6H-thieno[3,2-f][1,2,4]triazolo[4,3-a][1,4]diazepin-6-yl)acetate] the “value_2, gene Kcnab1” value (Day_6_JQ1) was 5.987, the “value_2, gene Kctd11” value (Day_6_JQ1) was 40.3428 and the “value_2, gene Kidins220” value (Day_6_JQ1) was 34.7188. The “value_2, gene Lamb1” value (Day_6_JQ1) was 116.83, the “value_2, gene Large” value (Day_6_JQ1) was 40.5667 and the “value_2, gene Lass6” value (Day_6_JQ1) was 16.8557. For the same molecule, the “value_2, gene Lbh” value (Day_6_JQ1) was 311.939, the “value_2, gene Lrp1” value (Day_6_JQ1) was 247.494 and the “value_2, gene Lynx1” value (Day_6_JQ1) was 16.3298. For the same molecule, the “value_2, gene Maged1” value (Day_6_JQ1) was 209.848, the “value_2, gene Map1lc3a” value (Day_6_JQ1) was 83.7075 and the “value_2, gene Marveld1” value (Day_6_JQ1) was 50.0393. The “value_2, gene Mmab” value (Day_6_JQ1) was 8.1326, the “value_2, gene Morc4” value (Day_6_JQ1) was 8.504 and the “value_2, gene Mpp6” value (Day_6_JQ1) was 75.1224. The “value_2, gene Mxra8” value (Day_6_JQ1) was 126.008, the “value_2, gene Mypop” value (Day_6_JQ1) was 8.4789 and the “value_2, gene Nans” value (Day_6_JQ1) was 59.0594. For the same molecule, the “value_2, gene Ngfrap1” value (Day_6_JQ1) was 196.152, the “value_2, gene Nxn” value (Day_6_JQ1) was 73.7521 and the “value_2, gene Ogn” value (Day_6_JQ1) was 68.5101. The “value_2, gene Olfml3” value (Day_6_JQ1) was 169.404, the “value_2, gene Oxct1” value (Day_6_JQ1) was 46.8229 and the “value_2, gene Palm” value (Day_6_JQ1) was 43.4603. For the same molecule, the “value_2, gene Parva” value (Day_6_JQ1) was 84.643, the “value_2, gene Pbxip1” value (Day_6_JQ1) was 66.9739 and the “value_2, gene Pcbp4” value (Day_6_JQ1) was 31.1679. The “value_2, gene Pde5a” value (Day_6_JQ1) was 4.315, the “value_2, gene Pdk3” value (Day_6_JQ1) was 17.7734 and the “value_2, gene Pdlim5” value (Day_6_JQ1) was 120.722. For the same molecule, the “value_2, gene Pdrg1” value (Day_6_JQ1) was 77.2251, the “value_2, gene Pdzrn3” value (Day_6_JQ1) was 35.4736 and the “value_2, gene Pgp” value (Day_6_JQ1) was 55.4841. For the same molecule, the “value_2, gene Pgrmc1” value (Day_6_JQ1) was 110.711, the “value_2, gene Plcxd2” value (Day_6_JQ1) was 8.321 and the “value_2, gene Plk4” value (Day_6_JQ1) was 7.27. The “value_2, gene Ppic” value (Day_6_JQ1) was 178.683, the “value_2, gene Pqlc3” value (Day_6_JQ1) was 21.232 and the “value_2, gene Prdx4” value (Day_6_JQ1) was 90.3086. For the same molecule, the “value_2, gene Prkab2” value (Day_6_JQ1) was 26.0507, the “value_2, gene Prr11” value (Day_6_JQ1) was 6.831 and the “value_2, gene Prrx1” value (Day_6_JQ1) was 33.6888. For the same molecule, the “value_2, gene Ptk7” value (Day_6_JQ1) was 33.1681, the “value_2, gene Ptprs” value (Day_6_JQ1) was 25.6268 and the “value_2, gene Rab11fip5” value (Day_6_JQ1) was 18.6008. For the same molecule, the “value_2, gene Rbfox2” value (Day_6_JQ1) was 31.4181, the “value_2, gene Rbms3” value (Day_6_JQ1) was 14.5408 and the “value_2, gene Rhou” value (Day_6_JQ1) was 27.2789. For the same molecule, the “value_2, gene Rrm1” value (Day_6_JQ1) was 37.9825, the “value_2, gene Rsu1” value (Day_6_JQ1) was 115.627 and the “value_2, gene Sepn1” value (Day_6_JQ1) was 53.0761. The “value_2, gene Shisa4” value (Day_6_JQ1) was 29.5421, the “value_2, gene Sidt2” value (Day_6_JQ1) was 85.8124 and the “value_2, gene Sil1” value (Day_6_JQ1) was 25.0211. For the same molecule, the “value_2, gene Smpd1” value (Day_6_JQ1) was 40.8765, the “value_2, gene Snx7” value (Day_6_JQ1) was 31.6545 and the “value_2, gene Sparc” value (Day_6_JQ1) was 3945.98. The “value_2, gene St3gal2” value (Day_6_JQ1) was 27.017, the “value_2, gene St6galnac6” value (Day_6_JQ1) was 21.1878 and the “value_2, gene Ston1” value (Day_6_JQ1) was 80.759. For the same molecule, the “value_2, gene Suox” value (Day_6_JQ1) was 13.7986, the “value_2, gene Synpo” value (Day_6_JQ1) was 128.3 and the “value_2, gene Tln2” value (Day_6_JQ1) was 10.7793. For the same molecule, the “value_2, gene Tmem176b” value (Day_6_JQ1) was 232.156, the “value_2, gene Tubb2a” value (Day_6_JQ1) was 56.747 and the “value_2, gene Tulp4” value (Day_6_JQ1) was 15.6577. The “value_2, gene Tyms” value (Day_6_JQ1) was 9.8, the “value_2, gene Unc5b” value (Day_6_JQ1) was 142.372 and the “value_2, gene Vcl” value (Day_6_JQ1) was 188.104. The “value_2, gene Wbp5” value (Day_6_JQ1) was 336.924, the “value_2, gene Zfp449” value (Day_6_JQ1) was 5.689 and the “4833442J19Rik value_2 (Day_6_JQ1)” value (primary HSCs, day 6 with JQ1) was 5.928. The “4930583H14Rik value_2 (Day_6_JQ1)” value (primary HSCs, day 6 with JQ1) was 0.6572, the “AA467197 value_2 (Day_6_JQ1)” value (primary HSCs, day 6 with JQ1) was 1.792 and the “AI427809 value_2 (Day_6_JQ1)” value (primary HSCs, day 6 with JQ1) was 0.3782. The “Acta1 value_2 (Day_6_JQ1)” value (primary HSCs, day 6 with JQ1) was 5.299, the “Actg2 value_2 (Day_6_JQ1)” value (primary HSCs, day 6 with JQ1) was 9.747 and the “Adamtsl2 value_2 (Day_6_JQ1)” value (primary HSCs, day 6 with JQ1) was 0.6746. The “Ak4 value_2 (Day_6_JQ1)” value (primary HSCs, day 6 with JQ1) was 2.207, the “Alox5ap value_2 (Day_6_JQ1)” value (primary HSCs, day 6 with JQ1) was 1.8396 and the “Angpt4 value_2 (Day_6_JQ1)” value (primary HSCs, day 6 with JQ1) was 2.216. For the same molecule, the “Aoc3 value_2 (Day_6_JQ1)” value (primary HSCs, day 6 with JQ1) was 0.7708, the “Atp1a3 value_2 (Day_6_JQ1)” value (primary HSCs, day 6 with JQ1) was 1.07 and the “Bcat1 value_2 (Day_6_JQ1)” value (primary HSCs, day 6 with JQ1) was 1.171. The “C1qtnf2 value_2 (Day_6_JQ1)” value (primary HSCs, day 6 with JQ1) was 1.262, the “C1qtnf5 value_2 (Day_6_JQ1)” value (primary HSCs, day 6 with JQ1) was 5.303 and the “Cck value_2 (Day_6_JQ1)” value (primary HSCs, day 6 with JQ1) was 0.3139. The “Ccl12 value_2 (Day_6_JQ1)” value (primary HSCs, day 6 with JQ1) was 0.2748, the “Cdh3 value_2 (Day_6_JQ1)” value (primary HSCs, day 6 with JQ1) was 1.477 and the “Cdh6 value_2 (Day_6_JQ1)” value (primary HSCs, day 6 with JQ1) was 0.764. The “Chd3 value_2 (Day_6_JQ1)” value (primary HSCs, day 6 with JQ1) was 4.386, the “Chst11 value_2 (Day_6_JQ1)” value (primary HSCs, day 6 with JQ1) was 22.6881 and the “Cnn1 value_2 (Day_6_JQ1)” value (primary HSCs, day 6 with JQ1) was 5.628. For the same molecule, the “Col6a2 value_2 (Day_6_JQ1)” value (primary HSCs, day 6 with JQ1) was 6.3149, the “Col6a3 value_2 (Day_6_JQ1)” value (primary HSCs, day 6 with JQ1) was 7.234 and the “Col7a1 value_2 (Day_6_JQ1)” value (primary HSCs, day 6 with JQ1) was 0.5444. For the same molecule, the “Col11a1 value_2 (Day_6_JQ1)” value (primary HSCs, day 6 with JQ1) was 4.303, the “Col15a1 value_2 (Day_6_JQ1)” value (primary HSCs, day 6 with JQ1) was 0.2832 and the “Csdc2 value_2 (Day_6_JQ1)” value (primary HSCs, day 6 with JQ1) was 0.913. For the same molecule, the “Cthrc1 value_2 (Day_6_JQ1)” value (primary HSCs, day 6 with JQ1) was 4.104, the “D430019H16Rik value_2 (Day_6_JQ1)” value (primary HSCs, day 6 with JQ1) was 1.971 and the “Def6 value_2 (Day_6_JQ1)” value (primary HSCs, day 6 with JQ1) was 0.8624. For the same molecule, the “Des value_2 (Day_6_JQ1)” value (primary HSCs, day 6 with JQ1) was 14.4745, the “Dkk2 value_2 (Day_6_JQ1)” value (primary HSCs, day 6 with JQ1) was 0.918 and the “Dok5 value_2 (Day_6_JQ1)” value (primary HSCs, day 6 with JQ1) was 1.203. For the same molecule, the “Dpep1 value_2 (Day_6_JQ1)” value (primary HSCs, day 6 with JQ1) was 0.6357.
